Laboratory results from US11034742B2, “Peptides with antibiotic potential against Mycobacterium tuberculosis” (LINNANE PHARMA AB, priority 2017, dated 2021).
≈ marks a conversion by molar mass, not a printed value. Positions of bridges follow the written chain, without caps; N, C: chain ends. Residues, ends and D or L forms follow the SMILES beside them.

System: M. tuberculosis

CC[C@H](C)[C@@H]1NC(=O)[C@H](CO)NC(=O)[C@H](CCCCN)NC(=O)[C@@H]2CSSC[C@@H](C(=O)N[C@@H](Cc3ccc(O)cc3)C(=O)O)NC(=O)[C@H](CCCCN)NC(=O)[C@@H]3CSSC[C@H](NC(=O)[C@H](CCC(N)=O)NC(=O)[C@H]([C@@H](C)CC)NC(=O)[C@H](CC(=O)O)NC(=O)[C@H](CC(=O)O)NC(=O)[C@H](CCC(=O)O)NC(=O)[C@H](CO)NC(=O)[C@H](Cc4c[nH]c5ccccc45)NC(=O)[C@@H]4CCCN4C(=O)CNC(=O)[C@H](CC(N)=O)NC(=O)[C@@H](NC(=O)CNC(=O)[C@H](Cc4ccccc4)NC(=O)CN)CSSC[C@H](NC(=O)[C@H](Cc4ccc(O)cc4)NC(=O)CNC(=O)CNC(=O)[C@H](CCCCN)NC(=O)[C@H](Cc4ccc(O)cc4)NC(=O)CNC(=O)[C@H](CCCCN)NC1=O)C(=O)N[C@@H](C)C(=O)N[C@@H](CCCNC(=N)N)C(=O)NCC(=O)NCC(=O)N[C@@H](Cc1ccccc1)C(=O)N[C@@H](C(C)C)C(=O)N3)C(=O)N[C@@H](Cc1c[nH]cn1)C(=O)N[C@@H](CC(N)=O)C(=O)N[C@@H](Cc1c[nH]cn1)C(=O)N2 [SEQ ID NO: 3] (H-GFGCNGPWSEDDIQCHNHCKSIKGYKGGYCARGGFVCKCY-OH; disulfide 4-30, 15-37, 19-39 (inferred); N-terminus and C-terminus assumed)
MIC (mg/L): 27.5 mg/L (≈ 6.27 µM)
MIC (μM): 6.8 µM (≈ 29.8 µg/mL)
mean concentration inhibiting 99% of bacterial growth: 6.3 µM

CC[C@H](C)[C@@H]1NC(=O)[C@H](C)NC(=O)[C@@H]2CSSC[C@H](NC(=O)CNC(=O)[C@H](Cc3ccccc3)NC(=O)CN)C(=O)N[C@@H](CC(N)=O)C(=O)NCC(=O)N3CCC[C@H]3C(=O)N[C@@H](Cc3c[nH]c4ccccc34)C(=O)N[C@@H](CO)C(=O)N[C@@H](CCC(=O)O)C(=O)N[C@@H](CC(=O)O)C(=O)N[C@@H](CC(=O)O)C(=O)N[C@@H]([C@@H](C)CC)C(=O)N[C@@H](CCC(N)=O)C(=O)N[C@H]3CSSC[C@H](NC(=O)[C@H](C(C)C)NC(=O)[C@H](Cc4ccccc4)NC(=O)CNC(=O)CNC1=O)C(=O)N[C@@H](CCCCN)C(=O)N[C@H](C(=O)N[C@@H](Cc1ccc(O)cc1)C(=O)O)CSSC[C@H](NC(=O)[C@H](Cc1c[nH]cn1)NC(=O)[C@H](CC(N)=O)NC(=O)[C@H](Cc1c[nH]cn1)NC3=O)C(=O)N[C@@H](CCCCN)C(=O)N[C@@H](CO)C(=O)N[C@@H]([C@@H](C)CC)C(=O)N[C@@H](CCCCN)C(=O)NCC(=O)N[C@@H](Cc1ccc(O)cc1)C(=O)N[C@@H](CCCCN)C(=O)NCC(=O)NCC(=O)N[C@@H](Cc1ccc(O)cc1)C(=O)N2 [SEQ ID NO: 4] (H-GFGCNGPWSEDDIQCHNHCKSIKGYKGGYCAIGGFVCKCY-OH; disulfide 4-30, 15-37, 19-39 (inferred); N-terminus and C-terminus assumed)
mean concentration inhibiting 99% of bacterial growth: 6.3 µM
